According to patent US12473295B2, “Substituted straight chain spiro derivatives” (Janssen Pharmaceutica NV, priority 2019, dated 2025):
Counter-ions that a name gives are not always drawn. Like-named read-outs stand apart in the source and are kept apart here.

What was measured:
[1] = target: menin/MLL (terbium chelate-labeled menin, FITC-MBM1 peptide) (Homo sapiens (Human), UniProt O00255); assay: Menin/MLL homogenous time-resolved fluorescence (HTRF) assay; format: binding; details: HTRF-30 min incubation IC50, 30 min incubation;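 further: IC50 from percent inhibition of HTRF signal, normalized between wells without competitor and wells with a saturating competitor that displaces FITC-MBM1 from His-tagged menin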
Sequence of menin/MLL (terbium chelate-labeled menin, FITC-MBM1 peptide) (O00255 other isoform, or with tags, fused parts or gaps): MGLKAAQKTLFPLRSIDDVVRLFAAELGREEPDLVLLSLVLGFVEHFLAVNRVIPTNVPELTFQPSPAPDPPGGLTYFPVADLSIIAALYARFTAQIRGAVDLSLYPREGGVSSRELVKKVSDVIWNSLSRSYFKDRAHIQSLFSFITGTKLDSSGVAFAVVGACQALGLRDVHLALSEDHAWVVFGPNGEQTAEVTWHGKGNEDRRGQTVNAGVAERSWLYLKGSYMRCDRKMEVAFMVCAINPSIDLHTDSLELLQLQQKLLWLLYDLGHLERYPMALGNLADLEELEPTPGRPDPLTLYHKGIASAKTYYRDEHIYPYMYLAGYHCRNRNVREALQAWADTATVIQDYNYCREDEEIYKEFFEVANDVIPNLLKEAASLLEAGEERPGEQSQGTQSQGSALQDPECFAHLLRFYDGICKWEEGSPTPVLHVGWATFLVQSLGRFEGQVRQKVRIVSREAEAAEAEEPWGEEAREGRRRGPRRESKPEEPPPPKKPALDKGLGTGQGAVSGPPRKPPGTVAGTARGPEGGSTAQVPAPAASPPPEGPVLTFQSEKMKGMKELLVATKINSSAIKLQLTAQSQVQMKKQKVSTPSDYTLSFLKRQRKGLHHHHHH

MOLM14 cells = assay: Proliferation assay (spheroid growth, 8 days), MOLM14; format: cell-based, human; details: MOLM14, 8 days, read-out: spheroid assay_OneTime MOLM14 IC50;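 further: spheroid size read as confluence by live-cell imaging, compounds added at a range of concentrations with 0.3% DMSO, DMSO-treated wells = 0%, highest reference dose = low control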
OCI-AML3 cells = assay: Proliferation assay (spheroid growth, 8 days), OCI-AML3; format: cell-based, human; details: OCI-AML3, 8 days
Summary of the method: (§1)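 8-day spheroid growth in ultra-low attachment plates; seeding 200 cells (MOLM14, OCI-AML3) or 300 (KO-52); DMSO 0.3%. Day-8 imaging, confluence vs DMSO (0%) and top reference dose (baseline); IC50 by variable-slope fit.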

KO-52 cells = assay: Proliferation assay (spheroid growth, 8 days), KO-52 control cell line; format: cell-based, human; details: Homo sapiens, […], read-out: spheroid assay_OneTime KO-52 IC50
Summary of the method: as §1

MEIS1 mRNA = MEIS1 mRNA expression assay (Quantigene Singleplex) in MOLM14 cells; format: cell-based, human; details: Homo sapiens, MOLM-14, 48 h, 48 hours incubation;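 further: MEIS1 transcript levels read by probe hybridization and normalized to RPL28 mRNA, with IC50 fitted to fold changes across a rising compound concentration series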

| SMILES | IC50 [1] | IC50 (MOLM14 cells; Homo sapiens, MOLM-14, […]) | IC50 (OCI-AML3 cells; Homo sapiens, OCI-AML-3, […]) | IC50 (KO-52 cells) | IC50 (MEIS1 mRNA) | IC50 (MOLM14 cells) | IC50 (OCI-AML3 cells) |
| --- | --- | --- | --- | --- | --- | --- | --- |
| CC(C)[C@@H](CCCN(C)[C@@H](C)CC(N)=O)N1CC2(CCN(c3ncnnc3Oc3ccc(F)cc3C(=O)N(C(C)C)C(C)C)C2)C1 (single isomer, unassigned) [Compound 201, 2-((5-(2-((*R)-6-(((S)-4-amino-4-oxobutan-2-yl)(methyl)amino)-2-methylhexan-3-yl)-2,6-diazaspiro[3.4]octan-6-yl)-1,2,4-triazin-6-yl)oxy)-5-fluoro-N,N-diisopropylbenzamide fumarate] | 0.13 nM | 40 nM | 65 nM | > 15000 nM | 52 nM | – | – |
| CC(C)[C@@H](CCCN(C)C[C@@H](C)C(N)=O)N1CC2(CCN(c3ncnnc3Oc3ccc(F)cc3C(=O)N(C(C)C)C(C)C)C2)C1 (single isomer, unassigned) [Compound 203, 2-((5-(2-((*R)-6-(((S)-3-amino-2-methyl-3-oxopropyl)(methyl)amino)-2-methylhexan-3-yl)-2,6-diazaspiro[3.4]octan-6-yl)-1,2,4-triazin-6-yl)oxy)-5-fluoro-N,N-diisopropylbenzamide fumarate] | 0.3 nM | 38 nM | 75 nM | > 15000 nM | 42 nM | – | – |
| CC(C)[C@@H](CCCN(C)C[C@H](C)C(N)=O)N1CC2(CCN(c3ncnnc3Oc3ccc(F)cc3C(=O)N(C(C)C)C(C)C)C2)C1 (single isomer, unassigned) [Compound 205, 2-((5-(2-((*R)-6-(((S)-3-amino-2-methyl-3-oxopropyl)(methyl)amino)-2-methylhexan-3-yl)-2,6-diazaspiro[3.4]octan-6-yl)-1,2,4-triazin-6-yl)oxy)-5-fluoro-N,N-diisopropylbenzamide fumarate] | 0.21 nM | 29 nM | 43 nM | > 15000 nM | 35 nM | – | – |
| CCN(C(=O)c1cc(F)ccc1Oc1nncnc1N1CCC2(C1)CN([C@H](CCCCN)C(C)C)C2)C(C)C (single isomer, unassigned) [Compound 209, (*R)-2-((5-(2-(7-amino-2-methylheptan-3-yl)-2,6-diazaspiro[3.4]octan-6-yl)-1,2,4-triazin-6-yl)oxy)-N-ethyl-5-fluoro-N-isopropylbenzamide formate] | 0.27 nM | 270 nM | 240 nM | > 15000 nM | 130 nM | – | – |
| CCN(C(=O)c1cc(F)ccc1Oc1nncnc1N1CCC2(C1)CN([C@H](CCCCN(C)C)C(C)C)C2)C(C)C (single isomer, unassigned) [Compound 211] | 0.35 nM | 150 nM | 97 nM | > 15000 nM | 110 nM | – | – |
| CCN(C(=O)c1cc(F)ccc1Oc1nncnc1N1CCC2(C1)CN([C@H](CCN)C(C)C)C2)C(C)C (single isomer, unassigned) [Compound 219, (*R)-2-((5-(2-(1-amino-4-methylpentan-3-yl)-2,6-diazaspiro[3.4]octan-6-yl)-1,2,4-triazin-6-yl)oxy)-N-ethyl-5-fluoro-N-isopropylbenzamide fumarate] | 0.27 nM | 130 nM | 430 nM | > 15000 nM | ~230 nM | – | – |
| CCN(C(=O)c1cc(F)ccc1Oc1nncnc1N1CCC2(C1)CN([C@H](CCNC(C)C)C(C)C)C2)C(C)C (single isomer, unassigned) [Compound 229, (*R)—N-ethyl-5-fluoro-N-isopropyl-2-((5-(2-(1-(isopropylamino)-4-methylpentan-3-yl)-2,6-diazaspiro[3.4]octan-6-yl)-1,2,4-triazin-6-yl)oxy)benzamide fumarate] | 0.37 nM | 320 nM | 870 nM | > 15000 nM | 360 nM | – | – |
| CCN(C(=O)c1cc(F)ccc1Oc1nncnc1N1CCC2(C1)CN([C@H](CCNCC(N)=O)C(C)C)C2)C(C)C (single isomer, unassigned) [Compound 230, (*R)-2-((5-(2-(1-((2-amino-2-oxoethyl)amino)-4-methylpentan-3-yl)-2,6-diazaspiro[3.4]octan-6-yl)-1,2,4-triazin-6-yl)oxy)-N-ethyl-5-fluoro-N-isopropylbenzamide] | ~0.88 nM | > 940 nM | 1160 nM | > 15000 nM | ~940 nM | – | – |
| CCN(C(=O)c1cc(F)ccc1Oc1nncnc1N1CCC2(C1)CN([C@H](CCCN(C)C[C@@H](C)OC)C(C)C)C2)C(C)C (single isomer, unassigned) [Compound 250, N-ethyl-5-fluoro-N-isopropyl-2-((5-(2-((R)-6-(((*R)-2-methoxypropyl)(methyl)amino)-2-methylhexan-3-yl)-2,6-diazaspiro[3.4]octan-6-yl)-1,2,4-triazin-6-yl)oxy)benzamide oxalate] | 0.18 nM | 220 nM | 410 nM | 7050 nM | 91 nM | – | – |
| CCN(C(=O)c1cc(F)ccc1Oc1nncnc1N1CCC2(C1)CN([C@H](CCCN(C)C[C@H](C)OC)C(C)C)C2)C(C)C (single isomer, unassigned) [Compound 251, N-ethyl-5-fluoro-N-isopropyl-2-((5-(2-((R)-6-(((*S)-2-methoxypropyl)(methyl)amino)-2-methylhexan-3-yl)-2,6-diazaspiro[3.4]octan-6-yl)-1,2,4-triazin-6-yl)oxy)benzamide oxalate] | 0.18 nM | 52 nM | 130 nM | 3900 nM | 19 nM | – | – |
| CCN(C(=O)c1cc(F)ccc1Oc1nncnc1N1CCC2(C1)CN(C(C(C)C)C(C)CCN(C)CCOC)C2)C(C)C (single isomer, unassigned) [Compound 266, N-ethyl-5-fluoro-N-isopropyl-2-((5-(2-(6-((2-methoxyethyl)(methyl)amino)-2,4-dimethylhexan-3-yl)-2,6-diazaspiro[3.4]octan-6-yl)-1,2,4-triazin-6-yl)oxy)benzamide (mixture of R,R and S,S; or mixture of R,S and S,R) fumarate] | 0.92 nM | – | – | > 15000 nM | 39 nM | 29 nM | 49 nM |
| CCN(C(=O)c1cc(F)ccc1Oc1nncnc1N1CCC2(C1)CN([C@H](CCNCCO)C(C)C)C2)C(C)C (single isomer, unassigned) [Compound 268, (*R)—N-ethyl-5-fluoro-2-((5-(2-(1-((2-hydroxyethyl)amino)-4-methylpentan-3-yl)-2,6-diazaspiro[3.4]octan-6-yl)-1,2,4-triazin-6-yl)oxy)-N-isopropylbenzamide fumarate] | 0.29 nM | 200 nM | 530 nM | > 15000 nM | 340 nM | – | – |
| CCN(C(=O)c1cc(F)ccc1Oc1nncnc1N1CCC2(C1)CN([C@H](CCN(C)CCO)C(C)C)C2)C(C)C (single isomer, unassigned) [Compound 270, (*R)—N-ethyl-5-fluoro-2-((5-(2-(1-((2-hydroxyethyl)(methyl)amino)-4-methylpentan-3-yl)-2,6-diazaspiro[3.4]octan-6-yl)-1,2,4-triazin-6-yl)oxy)-N-isopropylbenzamide fumarate] | 0.54 nM | 140 nM | 480 nM | > 15000 nM | 220 nM | – | – |
| CCN(C(=O)c1cc(F)ccc1Oc1nncnc1N1CCC2(C1)CN([C@H](CCNCCCOC)C(C)C)C2)C(C)C (single isomer, unassigned) [Compound 271, (*R)—N-ethyl-5-fluoro-N-isopropyl-2-((5-(2-(1-((3-methoxypropyl)amino)-4-methylpentan-3-yl)-2,6-diazaspiro[3.4]octan-6-)-1,2,4-triazin-6-yl)oxy)benzamide] | 0.27 nM | 65 nM | 160 nM | > 15000 nM | 100 nM | – | – |
| CCNCC[C@H](C(C)C)N1CC2(CCN(c3ncnnc3Oc3ccc(F)cc3C(=O)N(CC)C(C)C)C2)C1 (single isomer, unassigned) [Compound 272, (*R)—N-ethyl-2-((5-(2-(1-(ethylamino)-4-methylpentan-3-yl)-2,6-diazaspiro[3.4]octan-6-yl)-1,2,4-triazin-6-yl)oxy)-5-fluoro-N-isopropylbenzamide formate] | 0.58 nM | 130 nM | 440 nM | > 15000 nM | 170 nM | – | – |
| CCN(C(=O)c1cc(F)ccc1Oc1nncnc1N1CCC2(C1)CN([C@H](CCNCCCO)C(C)C)C2)C(C)C (single isomer, unassigned) [Compound 273, (*R)—N-ethyl-5-fluoro-2-((5-(2-(1-((3-hydroxypropyl)amino)-4-methylpentan-3-yl)-2,6-diazaspiro[3.4]octan-6-yl)-1,2,4-triazin-6-yl)oxy)-N-isopropylbenzamide] | 0.21 nM | 390 nM | 830 nM | > 15000 nM | ~390 nM | – | – |
| CCN(C(=O)c1cc(F)ccc1Oc1nncnc1N1CCC2(C1)CN([C@H](CCN(C)CCCO)C(C)C)C2)C(C)C (single isomer, unassigned) [Compound 274, (*R)—N-ethyl-5-fluoro-2-((5-(2-(1-((3-hydroxypropyl)(methyl)amino)-4-methylpentan-3-yl)-2,6-diazaspiro[3.4]octan-6-yl)-1,2,4-triazin-6-yl)oxy)-N-isopropylbenzamide] | 0.38 nM | 200 nM | 640 nM | > 15000 nM | 230 nM | – | – |
